Experimental data: US12435059B2, “AMP-activated protein kinase inhibitors and methods of making and using the same” (The Regents of the University of Colorado, priority 2019, dated 2025)

What was measured:
Assay in all cases: biochemical
Type in all cases: binding
468 kinases [1] = target: 468 kinases (Homo sapiens, UniProt O14578); conditions: CIT; read-out: % Inhibition @ 100 nM
468 kinases [2] = target: 468 kinases (Homo sapiens, UniProt O94806); conditions: PRKD3; read-out: % Inhibition @ 100 nM
468 kinases [3] = target: 468 kinases (Homo sapiens, UniProt P00533, G719S); conditions: EGFR(G719S); read-out: % Inhibition @ 100 nM
468 kinases [4] = target: 468 kinases (Homo sapiens, UniProt P00533, L858R); conditions: EGFR(L858R); read-out: % Inhibition @ 100 nM
468 kinases [5] = target: 468 kinases (Homo sapiens, UniProt P08581, Y1235D); conditions: MET(Y1235D); read-out: % Inhibition @ 100 nM
468 kinases [6] = target: 468 kinases (Homo sapiens, UniProt P08922); conditions: ROS1; read-out: % Inhibition @ 100 nM
468 kinases [7] = target: 468 kinases (Homo sapiens, UniProt P09769); conditions: FGR; read-out: % Inhibition @ 100 nM
468 kinases [8] = target: 468 kinases (Homo sapiens, UniProt P10721); conditions: KIT; read-out: % Inhibition @ 100 nM
468 kinases [9] = target: 468 kinases (Homo sapiens, UniProt P10721, D816H); conditions: KIT(D816H); read-out: % Inhibition @ 100 nM
468 kinases [10] = target: 468 kinases (Homo sapiens, UniProt P19525); conditions: PRKR; read-out: % Inhibition @ 100 nM
468 kinases [11] = target: 468 kinases (Homo sapiens, UniProt P41240); conditions: CSK; read-out: % Inhibition @ 100 nM
468 kinases [12] = target: 468 kinases (Homo sapiens, UniProt P46734); conditions: MEK3; read-out: % Inhibition @ 100 nM
468 kinases [13] = target: 468 kinases (Homo sapiens, UniProt P48730); conditions: CSNK1D; read-out: % Inhibition @ 100 nM
468 kinases [14] = target: 468 kinases (Homo sapiens, UniProt P49137); conditions: MAPKAPK2; read-out: % Inhibition @ 100 nM
468 kinases [15] = target: 468 kinases (Homo sapiens, UniProt P50613); conditions: CDK7; read-out: % Inhibition @ 100 nM
468 kinases [16] = target: 468 kinases (Homo sapiens, UniProt P52564); conditions: MEK6; read-out: % Inhibition @ 100 nM
468 kinases [17] = target: 468 kinases (Homo sapiens, UniProt P53667); conditions: LIMK1; read-out: % Inhibition @ 100 nM
468 kinases [18] = target: 468 kinases (Homo sapiens, UniProt P54756); conditions: EPHA5; read-out: % Inhibition @ 100 nM
468 kinases [19] = target: 468 kinases (Homo sapiens, UniProt Q00537); conditions: PCTK2; read-out: % Inhibition @ 100 nM
468 kinases [20] = target: 468 kinases (Homo sapiens, UniProt Q13177); conditions: PAK2; read-out: % Inhibition @ 100 nM
468 kinases [21] = target: 468 kinases (Homo sapiens, UniProt Q15569); conditions: TESK1; read-out: % Inhibition @ 100 nM
468 kinases [22] = target: 468 kinases (Homo sapiens, UniProt Q15831); conditions: LKB1; read-out: % Inhibition @ 100 nM
468 kinases [23] = target: 468 kinases (Homo sapiens, UniProt Q16513); conditions: PKN2; read-out: % Inhibition @ 100 nM
468 kinases [24] = target: 468 kinases (Homo sapiens, UniProt Q16539); conditions: p38-alpha; read-out: % Inhibition @ 100 nM
468 kinases [25] = target: 468 kinases (Homo sapiens, UniProt Q6DT37); conditions: DMPK2; read-out: % Inhibition @ 100 nM
468 kinases [26] = target: 468 kinases (Homo sapiens, UniProt Q7KZI7); conditions: MARK2; read-out: % Inhibition @ 100 nM
468 kinases [27] = target: 468 kinases (Homo sapiens, UniProt Q86UX6); conditions: YANK3; read-out: % Inhibition @ 100 nM
468 kinases [28] = target: 468 kinases (Homo sapiens, UniProt Q8IWQ3); conditions: BRSK2; read-out: % Inhibition @ 100 nM
468 kinases [29] = target: 468 kinases (Homo sapiens, UniProt Q8TD08); conditions: ERK8; read-out: % Inhibition @ 100 nM
468 kinases [30] = target: 468 kinases (Homo sapiens, UniProt Q96L34); conditions: MARK4; read-out: % Inhibition @ 100 nM
468 kinases [31] = target: 468 kinases (Homo sapiens, UniProt Q9NSY1); conditions: BIKE; read-out: % Inhibition @ 100 nM
468 kinases [32] = target: 468 kinases (Homo sapiens, UniProt Q9P1W9); conditions: PIM2; read-out: % Inhibition @ 100 nM
468 kinases [33] = target: 468 kinases (Homo sapiens, UniProt Q9UHD2); conditions: TBK1; read-out: % Inhibition @ 100 nM

468 kinases (Homo sapiens, UniProt P08581, Y1235D), sequence (P08581 25-1390 Y1235D limits assumed): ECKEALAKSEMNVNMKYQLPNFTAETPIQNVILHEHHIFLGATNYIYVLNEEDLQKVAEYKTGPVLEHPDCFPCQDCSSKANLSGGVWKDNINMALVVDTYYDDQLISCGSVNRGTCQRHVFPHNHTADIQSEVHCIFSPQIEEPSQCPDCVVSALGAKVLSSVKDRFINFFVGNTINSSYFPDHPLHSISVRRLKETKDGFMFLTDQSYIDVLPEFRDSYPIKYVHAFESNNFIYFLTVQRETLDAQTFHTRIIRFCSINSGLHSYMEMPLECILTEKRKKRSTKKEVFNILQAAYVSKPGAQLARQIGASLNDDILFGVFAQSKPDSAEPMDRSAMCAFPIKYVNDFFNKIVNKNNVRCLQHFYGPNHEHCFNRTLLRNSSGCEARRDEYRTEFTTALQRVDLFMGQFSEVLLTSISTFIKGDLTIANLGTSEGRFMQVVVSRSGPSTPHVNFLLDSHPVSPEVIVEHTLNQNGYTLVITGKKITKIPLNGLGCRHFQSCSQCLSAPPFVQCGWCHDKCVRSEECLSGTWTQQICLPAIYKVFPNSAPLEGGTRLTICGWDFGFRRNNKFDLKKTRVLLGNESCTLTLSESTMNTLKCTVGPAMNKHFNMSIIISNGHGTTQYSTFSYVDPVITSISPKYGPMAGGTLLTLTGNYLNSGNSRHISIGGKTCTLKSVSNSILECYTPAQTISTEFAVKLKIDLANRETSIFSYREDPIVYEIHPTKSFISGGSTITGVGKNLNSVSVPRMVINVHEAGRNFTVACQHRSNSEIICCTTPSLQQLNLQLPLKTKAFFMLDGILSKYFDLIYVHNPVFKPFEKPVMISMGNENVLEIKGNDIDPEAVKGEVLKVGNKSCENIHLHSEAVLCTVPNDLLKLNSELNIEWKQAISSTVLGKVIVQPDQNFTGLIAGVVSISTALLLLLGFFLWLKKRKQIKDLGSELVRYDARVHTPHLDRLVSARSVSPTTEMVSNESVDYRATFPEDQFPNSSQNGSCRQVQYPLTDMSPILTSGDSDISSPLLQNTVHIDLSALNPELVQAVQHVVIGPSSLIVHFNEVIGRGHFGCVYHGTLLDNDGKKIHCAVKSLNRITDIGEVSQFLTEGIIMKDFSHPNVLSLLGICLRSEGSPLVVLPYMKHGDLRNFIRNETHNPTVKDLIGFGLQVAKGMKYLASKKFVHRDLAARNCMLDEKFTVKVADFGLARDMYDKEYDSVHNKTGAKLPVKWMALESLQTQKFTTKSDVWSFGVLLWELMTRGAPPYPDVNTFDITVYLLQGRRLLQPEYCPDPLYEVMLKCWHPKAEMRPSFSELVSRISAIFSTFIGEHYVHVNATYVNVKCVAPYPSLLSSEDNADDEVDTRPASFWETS
468 kinases (Homo sapiens, UniProt P00533, G719S), sequence (P00533 25-1210 G719S limits assumed): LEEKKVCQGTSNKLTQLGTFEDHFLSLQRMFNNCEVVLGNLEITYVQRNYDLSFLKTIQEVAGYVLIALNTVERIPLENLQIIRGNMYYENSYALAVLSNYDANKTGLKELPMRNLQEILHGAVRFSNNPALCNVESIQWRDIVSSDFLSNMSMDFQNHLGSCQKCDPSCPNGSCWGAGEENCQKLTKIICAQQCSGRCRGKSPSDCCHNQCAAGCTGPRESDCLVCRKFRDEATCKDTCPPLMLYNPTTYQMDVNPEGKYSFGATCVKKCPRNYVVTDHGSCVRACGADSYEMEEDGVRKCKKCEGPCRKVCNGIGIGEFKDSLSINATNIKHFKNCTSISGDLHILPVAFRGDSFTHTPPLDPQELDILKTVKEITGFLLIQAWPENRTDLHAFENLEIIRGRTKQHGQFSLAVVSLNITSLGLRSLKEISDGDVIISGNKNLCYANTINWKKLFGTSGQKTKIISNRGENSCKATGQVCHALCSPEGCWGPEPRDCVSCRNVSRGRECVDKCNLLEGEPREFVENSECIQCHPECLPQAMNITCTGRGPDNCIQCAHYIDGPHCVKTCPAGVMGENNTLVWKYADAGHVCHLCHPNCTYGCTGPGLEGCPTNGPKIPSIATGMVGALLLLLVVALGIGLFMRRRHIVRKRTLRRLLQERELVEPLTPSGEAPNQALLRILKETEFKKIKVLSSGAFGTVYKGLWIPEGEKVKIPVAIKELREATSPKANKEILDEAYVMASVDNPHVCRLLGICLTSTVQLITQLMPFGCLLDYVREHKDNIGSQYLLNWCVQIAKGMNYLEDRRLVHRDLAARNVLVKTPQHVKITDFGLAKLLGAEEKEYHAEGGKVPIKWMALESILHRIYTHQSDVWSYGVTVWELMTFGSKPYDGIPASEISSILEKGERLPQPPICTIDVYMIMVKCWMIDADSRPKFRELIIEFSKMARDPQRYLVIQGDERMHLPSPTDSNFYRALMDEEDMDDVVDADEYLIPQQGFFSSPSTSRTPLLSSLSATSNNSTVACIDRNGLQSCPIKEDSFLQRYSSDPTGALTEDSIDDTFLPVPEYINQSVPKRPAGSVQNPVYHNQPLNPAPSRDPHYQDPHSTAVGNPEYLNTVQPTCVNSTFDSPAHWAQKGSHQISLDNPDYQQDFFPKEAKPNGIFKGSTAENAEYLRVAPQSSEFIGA
468 kinases (Homo sapiens, UniProt P00533, L858R), sequence (P00533 25-1210 L858R limits assumed): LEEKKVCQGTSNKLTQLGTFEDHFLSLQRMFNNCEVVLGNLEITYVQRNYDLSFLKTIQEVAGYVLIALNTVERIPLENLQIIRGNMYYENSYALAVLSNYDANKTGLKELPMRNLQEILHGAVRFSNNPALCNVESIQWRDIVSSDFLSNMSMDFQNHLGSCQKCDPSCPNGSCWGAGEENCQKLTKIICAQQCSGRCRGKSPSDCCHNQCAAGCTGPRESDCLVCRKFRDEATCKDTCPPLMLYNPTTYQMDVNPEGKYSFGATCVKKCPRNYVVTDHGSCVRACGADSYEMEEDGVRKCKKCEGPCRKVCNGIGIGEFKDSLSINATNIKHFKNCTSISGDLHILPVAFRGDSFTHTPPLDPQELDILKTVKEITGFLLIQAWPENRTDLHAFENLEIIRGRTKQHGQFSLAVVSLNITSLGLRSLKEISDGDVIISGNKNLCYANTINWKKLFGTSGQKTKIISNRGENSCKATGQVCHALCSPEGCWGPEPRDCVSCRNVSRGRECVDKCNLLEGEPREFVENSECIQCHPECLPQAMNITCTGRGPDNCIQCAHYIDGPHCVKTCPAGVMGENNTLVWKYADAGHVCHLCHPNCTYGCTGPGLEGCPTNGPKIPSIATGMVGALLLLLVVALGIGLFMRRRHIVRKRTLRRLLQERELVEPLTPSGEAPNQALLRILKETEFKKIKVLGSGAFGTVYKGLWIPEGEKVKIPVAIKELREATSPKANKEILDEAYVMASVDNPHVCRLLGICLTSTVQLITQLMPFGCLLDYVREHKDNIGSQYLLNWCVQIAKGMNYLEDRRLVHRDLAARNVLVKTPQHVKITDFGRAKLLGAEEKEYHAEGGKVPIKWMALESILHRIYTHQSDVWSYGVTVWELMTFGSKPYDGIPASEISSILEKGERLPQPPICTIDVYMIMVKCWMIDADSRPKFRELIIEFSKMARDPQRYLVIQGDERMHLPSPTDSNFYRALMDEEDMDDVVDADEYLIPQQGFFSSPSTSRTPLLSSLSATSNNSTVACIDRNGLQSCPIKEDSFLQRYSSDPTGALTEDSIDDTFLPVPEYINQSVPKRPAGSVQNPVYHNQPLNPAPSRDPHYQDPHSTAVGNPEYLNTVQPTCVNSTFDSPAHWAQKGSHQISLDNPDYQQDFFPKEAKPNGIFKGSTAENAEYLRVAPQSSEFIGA
468 kinases (Homo sapiens, UniProt P10721, D816H), sequence (P10721 26-976 D816H limits assumed): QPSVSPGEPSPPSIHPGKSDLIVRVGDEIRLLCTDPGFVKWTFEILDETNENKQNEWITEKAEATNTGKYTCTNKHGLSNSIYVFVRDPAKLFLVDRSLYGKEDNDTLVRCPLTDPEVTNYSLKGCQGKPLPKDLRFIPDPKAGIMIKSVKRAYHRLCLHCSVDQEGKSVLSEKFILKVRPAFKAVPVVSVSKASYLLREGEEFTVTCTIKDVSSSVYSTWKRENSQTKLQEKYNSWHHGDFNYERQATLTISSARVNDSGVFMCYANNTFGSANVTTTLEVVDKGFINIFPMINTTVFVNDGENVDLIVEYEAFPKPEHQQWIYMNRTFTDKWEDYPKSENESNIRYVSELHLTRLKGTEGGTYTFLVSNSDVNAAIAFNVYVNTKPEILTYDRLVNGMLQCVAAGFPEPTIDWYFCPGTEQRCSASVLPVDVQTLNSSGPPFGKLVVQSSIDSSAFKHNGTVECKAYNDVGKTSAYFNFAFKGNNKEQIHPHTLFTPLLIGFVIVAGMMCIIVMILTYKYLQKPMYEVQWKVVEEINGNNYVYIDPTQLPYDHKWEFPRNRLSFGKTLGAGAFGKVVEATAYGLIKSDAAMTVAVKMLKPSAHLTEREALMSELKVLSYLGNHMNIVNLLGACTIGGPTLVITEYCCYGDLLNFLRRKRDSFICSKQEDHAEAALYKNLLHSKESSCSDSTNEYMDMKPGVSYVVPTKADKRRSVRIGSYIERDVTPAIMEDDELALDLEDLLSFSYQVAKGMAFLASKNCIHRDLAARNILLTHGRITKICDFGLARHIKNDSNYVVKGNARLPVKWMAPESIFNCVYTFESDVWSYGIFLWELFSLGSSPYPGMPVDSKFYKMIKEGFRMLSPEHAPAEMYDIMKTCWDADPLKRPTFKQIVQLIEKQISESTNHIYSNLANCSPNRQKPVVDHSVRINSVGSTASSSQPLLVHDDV
468 kinases (Homo sapiens, UniProt Q16539), sequence (Q16539 2-360 limits assumed): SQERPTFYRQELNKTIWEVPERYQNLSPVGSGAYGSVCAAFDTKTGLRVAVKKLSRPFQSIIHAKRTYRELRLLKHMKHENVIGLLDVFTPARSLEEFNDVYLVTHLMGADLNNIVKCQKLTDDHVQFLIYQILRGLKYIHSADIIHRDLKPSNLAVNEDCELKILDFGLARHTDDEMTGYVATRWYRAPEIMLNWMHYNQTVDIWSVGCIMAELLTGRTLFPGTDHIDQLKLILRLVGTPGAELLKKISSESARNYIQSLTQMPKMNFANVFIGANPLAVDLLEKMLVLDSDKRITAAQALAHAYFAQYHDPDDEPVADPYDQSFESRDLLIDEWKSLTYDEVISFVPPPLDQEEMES
468 kinases (Homo sapiens, UniProt P10721), sequence (P10721 26-976 limits assumed): as the sequence (P10721 26-976 D816H limits assumed) above, with H791D counted along it

Structure (SMILES) | inhibition at 0.1 µM (468 kinases [1]) [%] | inhibition at 0.1 µM (468 kinases [2]) [%] | inhibition at 0.1 µM (468 kinases [3]) [%] | inhibition at 0.1 µM (468 kinases [4]) [%] | inhibition at 0.1 µM (468 kinases [5]) [%] | inhibition at 0.1 µM (468 kinases [6]) [%] | inhibition at 0.1 µM (468 kinases [7]) [%] | inhibition at 0.1 µM (468 kinases [8]) [%] | inhibition at 0.1 µM (468 kinases [9]) [%] | inhibition at 0.1 µM (468 kinases [10]) [%] | inhibition at 0.1 µM (468 kinases [11]) [%] | inhibition at 0.1 µM (468 kinases [12]) [%] | inhibition at 0.1 µM (468 kinases [13]) [%] | inhibition at 0.1 µM (468 kinases [14]) [%] | inhibition at 0.1 µM (468 kinases [15]) [%] | inhibition at 0.1 µM (468 kinases [16]) [%] | inhibition at 0.1 µM (468 kinases [17]) [%] | inhibition at 0.1 µM (468 kinases [18]) [%] | inhibition at 0.1 µM (468 kinases [19]) [%] | inhibition at 0.1 µM (468 kinases [20]) [%] | further results
CCN(CC)CCNC(=O)c1c(C)[nH]c(/C=C2\C(=O)Nc3ccc(CCC(N)=O)cc32)c1C [Compound No. 16, (Z)-5-((5-(3-Amino-3-oxopropyl)-2-oxoindolin-3-ylidene)methyl)-N-(2-(diethylamino)ethyl)-2,4-dimethyl-1H-pyrrole-3-carboxamide] | 0 | 53 | 21 | 32 | 0 | 0 | 32 | 8 | 33 | 29 | 1 | 35 | 9 | 0 | 80 | 25 | 17 | 9 | 17 | 0 | inhibition at 0.1 µM (468 kinases [21]): 5%; inhibition at 0.1 µM (468 kinases [22]): 16%; inhibition at 0.1 µM (468 kinases [23]): 18%; inhibition at 0.1 µM (468 kinases [24]): 0%; inhibition at 0.1 µM (468 kinases [25]): 20%; inhibition at 0.1 µM (468 kinases [26]): 40%; inhibition at 0.1 µM (468 kinases [27]): 0%; inhibition at 0.1 µM (468 kinases [28]): 25%; inhibition at 0.1 µM (468 kinases [29]): 25%; inhibition at 0.1 µM (468 kinases [30]): 12%; inhibition at 0.1 µM (468 kinases [31]): 93.6%; inhibition at 0.1 µM (468 kinases [32]): 0%; inhibition at 0.1 µM (468 kinases [33]): 58%
CCN(CC)CCNC(=O)c1c(C)[nH]c(/C=C2\C(=O)Nc3ccc(CCO)cc32)c1C [Compound No. 10, (Z)—N-(2-(Diethylamino)ethyl)-5-((5-(2-hydroxyethyl)-2-oxoindolin-3-ylidene)methyl)-2,4-dimethyl-1H-pyrrole-3-carboxamide] | 4 | 0 | 9 | 0 | 4 | 15 | 16 | 80 | 6 | 2 | 0 | 9 | 29 | 0 | 86 | 11 | 0 | 0 | 0 | 0 | inhibition at 0.1 µM (468 kinases [21]): 10%; inhibition at 0.1 µM (468 kinases [22]): 31%; inhibition at 0.1 µM (468 kinases [23]): 24%; inhibition at 0.1 µM (468 kinases [24]): 0%; inhibition at 0.1 µM (468 kinases [25]): 0%; inhibition at 0.1 µM (468 kinases [26]): 6%; inhibition at 0.1 µM (468 kinases [27]): 22%; inhibition at 0.1 µM (468 kinases [28]): 32%; inhibition at 0.1 µM (468 kinases [29]): 15%; inhibition at 0.1 µM (468 kinases [30]): 41%; inhibition at 0.1 µM (468 kinases [31]): 97.4%; inhibition at 0.1 µM (468 kinases [32]): 8%; inhibition at 0.1 µM (468 kinases [33]): 57%
